In US10093623B2, “Cyclic amides as MetAP-2 inhibitors” (MERCK PATENT GmbH, priority 2012, dated 2018):
pIC50: −log10 of the molar value.

Target: MetAP-2 (Homo sapiens, UniProt P50579)
Assay: MetAP-2 activity measurement (coupled enzymatic reactions, Met-Arg-Ser substrate, dianisidine detection at 450 nm)
Format: biochemical
Details: Inhibition of MetAP-2; read-out: IC50 enzyme
Procedure, shortened: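 Rate read from the linear part of the 450 nm absorbance trace. Dianisidine oxidation by peroxidase reports H2O2 made when amino acid oxidase acts on methionine cleaved from MAS tripeptide, one mol dye per mol Met; extinction coefficient gives molar activity.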

Chain of MetAP-2 (P50579 whole entry, species assumed): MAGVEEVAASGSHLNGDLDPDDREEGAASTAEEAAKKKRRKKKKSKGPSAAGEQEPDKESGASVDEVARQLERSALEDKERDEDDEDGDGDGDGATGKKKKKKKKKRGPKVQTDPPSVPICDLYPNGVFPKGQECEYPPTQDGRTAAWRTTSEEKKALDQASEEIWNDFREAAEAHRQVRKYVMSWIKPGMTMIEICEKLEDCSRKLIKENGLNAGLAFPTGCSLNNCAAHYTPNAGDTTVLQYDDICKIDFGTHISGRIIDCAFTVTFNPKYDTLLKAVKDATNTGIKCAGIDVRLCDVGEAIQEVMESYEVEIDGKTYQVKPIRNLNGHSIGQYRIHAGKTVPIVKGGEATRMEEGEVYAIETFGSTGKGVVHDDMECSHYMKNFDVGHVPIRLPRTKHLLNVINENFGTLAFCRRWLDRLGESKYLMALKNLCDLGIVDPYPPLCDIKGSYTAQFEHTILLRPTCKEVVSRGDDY

| Structure (SMILES) | pIC50 |
| --- | --- |
| O=C(NCc1cc(F)cc(Cl)c1)[C@@]1(O)CCN(CCc2c[nH]c3ccccc23)C1=O [B37, N-(3-Chloro-5-fluorobenzyl)-(S)-3-hydroxy-1-[2-(1H-indol-3-yl)-ethyl]-2-oxopyrrolidine-3-carboxamide] | 6.00 to 8.00 |
| O=C(NCc1cc(F)cc(Cl)c1)[C@@]1(O)CCN(c2ccc3[nH]c(=O)ccc3c2)C1=O [B40, N-(3-Chloro-5-fluorobenzyl)-(S)-3-hydroxy-2-oxo-1-(2-oxo-1,2-dihydroquinolin-6-yl)pyrrolidine-3-carboxamide] | 6.00 to 8.00 |
| O=C(NCc1cc(F)cc(Cl)c1)[C@]1(O)CCN(c2cc(C(F)(F)F)ccc2F)C1=O [B42, N-(3-Chloro-5-fluorobenzyl)-(R)-1-(2-Fluoro-5-trifluoromethyl-phenyl)-3-hydroxy-2-oxo-pyrrolidine-3-carboxamide] | 5.00 to 6.00 |
| O=C(NCc1cc(F)cc(Cl)c1)C1(O)CCN(c2ccc3[nH]cc(C(F)(F)F)c3c2)C1=O (centres unmarked) [B43, N-(3-Chloro-5-fluorobenzyl)-3-hydroxy-2-oxo-1-(3-trifluoromethyl-1H-indol-5-yl)-pyrrolidine-3-carboxamide] | 6.00 to 8.00 |
| O=C1N(c2ccccc2)CCC1(O)CNCCc1ccc(F)cc1 (centres unmarked) [B47, 3-{[2-(4-Fluorophenyl)-ethylamino]methyl}-3-hydroxy-1-phenylpyrrolidin-2-one] | 5.00 to 6.00 |
| Cc1ccc(CNCC2(O)CCN(c3ccccc3)C2=O)cc1 (centres unmarked) [B49, 3-Hydroxy-3-[(4-methyl-benzylamino)methyl]-1-phenyl-pyrrolidin-2-one] | 6.00 to 8.00 |
| O=C1CCc2cc(NC(=O)C3(O)CCN(c4ccc5c(c4)CCC(=O)N5)C3=O)ccc2N1 (centres unmarked) [B50, N-(2-Oxo-1,2,3,4-tetrahydro-quinolin-6-yl)-3-hydroxy-2-oxo-1-(2-oxo-1,2,3,4-tetrahydro-quinolin-6-yl)pyrrolidine-3-carboxamide] | < 5.00 |
| O=C(NCc1cc(F)cc(Cl)c1)[C@@]1(O)CCN(c2cc(C(F)(F)F)ccn2)C1=O [B52, N-(3-Chloro-5-fluorobenzyl)-(S)-3-hydroxy-2-oxo-1-(4-trifluoromethylpyridin-2-yl)-pyrrolidine-3-carboxamide] | 6.00 to 8.00 |
| O=C1N(Cc2ccccc2)CCC[C@@]1(O)CNCc1cc(F)cc(Cl)c1 [B55, (R)-1-Benzyl-3-[(3-chloro-5-fluorobenzylamino)methyl]-3-hydroxypiperidin-2-one] | 5.00 to 6.00 |
| O=C1CCc2cc(N3CC[C@@](O)(C(=O)NCc4cccc(F)c4)C3=O)ccc2N1 [B57, N-(3-Fluorobenzyl)-(R)-3-hydroxy-2-oxo-1-(2-oxo-1,2,3,4-tetrahydroquinolin-6-yl)-pyrrolidine-3-carboxamide] | < 5.00 |
| O=C1N(c2ccccc2)CC[C@@]1(O)CNCc1cc(F)cc(Cl)c1 [B58, (R)-3-[(3-Chloro-5-fluorobenzylamino)methyl]-3-hydroxy-1-phenylpyrrolidin-2-one] | 5.00 to 6.00 |
| O=C(NCc1cc(F)cc(Cl)c1)[C@@]1(O)CCN(Cc2n[nH]c3ccccc23)C1=O [B60, N-(3-Chloro-5-fluorobenzyl)-(S)-3-hydroxy-1-(1H-indazol-3-ylmethyl)-2-oxopyrrolidine-3-carboxamide] | 6.00 to 8.00 |
| Cc1cc2cc(N3CC[C@](O)(C(=O)NCc4cc(F)cc(Cl)c4)C3=O)cnc2[nH]1 [B62, N-(3-Chloro-5-fluorobenzyl)-(S)-3-hydroxy-1-(2-methyl-1H-pyrrolo[2,3-b]pyridin-5-yl)-2-oxo-pyrrolidine-3-carboxamide] | 6.00 to 8.00 |
| O=C(NCc1cc(F)cc(Cl)c1)[C@@]1(O)CCN(c2ccc(C(F)(F)F)cc2F)C1=O [B65, N-(3-Chloro-5-fluorobenzyl)-(S)-1-(2-fluoro-4-trifluoromethyl-phenyl)-3-hydroxy-2-oxo-pyrrolidine-3-carboxamide] | 6.00 to 8.00 |
| Cc1ccc(N2CC[C@](O)(C(=O)NCc3cc(F)cc(Cl)c3)C2=O)c(F)c1 [B66, N-(3-Chloro-5-fluorobenzyl)-(S)-1-(2-fluoro-4-methylphenyl)-3-hydroxy-2-oxopyrrolidine-3-carboxamide] | 6.00 to 8.00 |
| O=C1CCc2cc(CN3CCC(O)(C(=O)NCc4cc(F)cc(Cl)c4)C3=O)ccc2N1 (centres unmarked) [B69, N-(3-Chloro-5-fluorobenzyl)-3-hydroxy-2-oxo-1-(2-oxo-1,2,3,4-tetrahydroquinolin-6-ylmethyl)-pyrrolidine-3-carboxamide] | 6.00 to 8.00 |
| O=C(NCc1cc(F)cc(Cl)c1)[C@@]1(O)CCN(c2ccc3[nH]c(=O)[nH]c3c2)C1=O [B71, N-(3-Chloro-5-fluorobenzyl)-(S)-3-hydroxy-2-oxo-1-(2-oxo-2,3-dihydro-1H-benzimidazol-5-yl)-pyrrolidine-3-carboxamide] | 6.00 to 8.00 |
| O=C(NCc1cc(F)cc(Cl)c1)[C@]1(O)CCN(c2ccc3[nH]cc(C(F)(F)F)c3c2)C1=O [B73, N-(3-Chloro-5-fluorobenzyl)-(R)-3-hydroxy-2-oxo-1-(3-trifluoro-methyl-1H-indol-5-yl)pyrrolidine-3-carboxamide] | < 5.00 |
| O=C(NCc1cc(F)cc(Cl)c1)[C@@]1(O)CCN(c2ccc3[nH]cc(C(F)(F)F)c3c2)C1=O [B74, N-(3-Chloro-5-fluorobenzyl)-(S)-3-hydroxy-2-oxo-1-(3-trifluoro-methyl-1H-indol-5-yl)pyrrolidine-3-carboxamide] | 6.00 to 8.00 |

Further lines, results first:

| pIC50 | Structure (SMILES) |
| --- | --- |
| 5.00 to 6.00 | O=C(NCc1cc(F)cc(Cl)c1)C1(O)CCN(c2cnc3[nH]c(C(F)(F)F)nc3c2)C1=O (centres unmarked) [B36, N-(3-Chloro-5-fluorobenzyl)-3-hydroxy-2-oxo-1-(2-trifluoromethyl-3H-imidazo-[4,5-b]pyridin-6-yl)pyrrolidine-3-carboxamide] |
| 5.00 to 6.00 | O=C(NCc1cc(F)cc(Cl)c1)[C@]1(O)CCN(CCc2c[nH]c3ccccc23)C1=O [B38, N-(3-Chloro-5-fluorobenzyl)-(R)-3-hydroxy-1-[2-(1H-indol-3-yl)-ethyl]-2-oxopyrrolidine-3-carboxamide] |
| 6.00 to 8.00 | O=C(NCc1cc(F)cc(Cl)c1)[C@@]1(O)CCN(c2cc(C(F)(F)F)ccc2F)C1=O [B39, N-(3-Chloro-5-fluorobenzyl)-(S)-1-(2-Fluoro-5-trifluoromethyl-phenyl)-3-hydroxy-2-oxo-pyrrolidine-3-carboxamide] |
| 5.00 to 6.00 | O=C(NCc1cc(F)cc(Cl)c1)[C@]1(O)CCN(c2ccc3[nH]c(=O)ccc3c2)C1=O [B41, N-(3-Chloro-5-fluorobenzyl)-(R)-3-hydroxy-2-oxo-1-(2-oxo-1,2-dihydroquinolin-6-yl)pyrrolidine-3-carboxamide] |
| < 5.00 | OC1(CNCc2cc(F)cc(F)c2)CCCN(Cc2ccccc2)C1 (centres unmarked) [B44, 1-Benzyl-3-[(3,5-difluorobenzylamino)methyl]-piperidin-3-ol] |
| 5.00 to 6.00 | O=C1N(c2ccccc2)CCC1(O)CNCc1ccc(F)cc1 (centres unmarked) [B45, 3-[(4-Fluorobenzylamino)-methyl]-3-hydroxy-1-phenyl-pyrrolidin-2-one] |
| 6.00 to 8.00 | O=C1N(c2ccccc2)CCC1(O)CNCc1cc(F)cc(F)c1 (centres unmarked) [B46, 3-[(3,5-Difluorobenzylamino)-methyl]-3-hydroxy-1-phenyl-pyrrolidin-2-one] |
| 5.00 to 6.00 | O=C1N(c2ccccc2)CCC1(O)CNCc1cccc(F)c1 (centres unmarked) [B48, 3-[(3-Fluorobenzylamino)-methyl]-3-hydroxy-1-phenyl-pyrrolidin-2-one] |
| < 5.00 | CC(C)(C)OC(=O)N1CCC(O)(C(=O)OCc2ccccc2)C1=O (centres unmarked) [B51, 3-Benzyl 1-tert-butyl 3-hydroxy-2-oxopyrrolidine-1,3-dicarboxylate] |
| < 5.00 | CC(C)OC(=O)C1(O)CCN(C(=O)OCc2ccccc2)C1=O (centres unmarked) [B53, 1-Benzyl 3-isopropyl 3-hydroxy-2-oxopyrrolidine-1,3-dicarboxylate] |
| 6.00 to 8.00 | O=C1N(Cc2ccccc2)CCC[C@]1(O)CNCc1cc(F)cc(Cl)c1 [B54, (S)-1-Benzyl-3-[(3-chloro-5-fluorobenzylamino)methyl]-3-hydroxypiperidin-2-one] |
| 6.00 to 8.00 | O=C1CCc2cc(N3CC[C@](O)(C(=O)NCc4cccc(F)c4)C3=O)ccc2N1 [B56, N-(3-Fluorobenzyl)-(S)-3-hydroxy-2-oxo-1-(2-oxo-1,2,3,4-tetrahydroquinolin-6-yl)-pyrrolidine-3-carboxamide] |
| 6.00 to 8.00 | O=C1N(c2ccccc2)CC[C@]1(O)CNCc1cc(F)cc(Cl)c1 [B59, (S)-3-[(3-Chloro-5-fluorobenzylamino)methyl]-3-hydroxy-1-phenylpyrrolidin-2-one] |
| 5.00 to 6.00 | Cc1cc2cc(N3CC[C@@](O)(C(=O)NCc4cc(F)cc(Cl)c4)C3=O)cnc2[nH]1 [B61, N-(3-Chloro-5-fluorobenzyl)-(R)-3-hydroxy-1-(2-methyl-1H-pyrrolo[2,3-b]pyridin-5-yl)-2-oxo-pyrrolidine-3-carboxamide] |
| 6.00 to 8.00 | O=C1N(CC2CCCCC2)CCC[C@]1(O)CNCc1cc(F)cc(Cl)c1 [B63, (S)-3-[(3-Chloro-5-fluorobenzylamino)methyl]-1-cyclohexylmethyl-3-hydroxy-piperidin-2-one] |
| < 5.00 | O=C1N(CC2CCCCC2)CCC[C@@]1(O)CNCc1cc(F)cc(Cl)c1 [B64, (R)-3-[(3-Chloro-5-fluorobenzylamino)methyl]-1-cyclohexylmethyl-3-hydroxy-piperidin-2-one] |
| 5.00 to 6.00 | O=C(NCc1cc(F)cc(Cl)c1)C1(O)CCCN(c2cc(C(F)(F)F)ccc2F)C1=O (centres unmarked) [B67, N-(3-Chloro-5-fluorobenzyl)-1-(2-fluoro-5-trifluoromethyl-phenyl)-3-hydroxy-2-oxo-piperidine-3-carboxamide] |
| 5.00 to 6.00 | O=C1CCc2cc(N3CCCC(O)(CNCc4cc(F)cc(Cl)c4)C3=O)ccc2N1 (centres unmarked) [B68, 6-{3-[(3-Chloro-5-fluorobenzylamino)methyl]-3-hydroxy-2-oxopiperidin-1-yl}-3,4-dihydro-1H-quinolin-2-one] |
| 6.00 to 8.00 | NC(=O)c1ccc(F)c(N2CC[C@](O)(C(=O)NCc3cc(F)cc(Cl)c3)C2=O)c1 [B70, N-(3-Chloro-5-fluorobenzyl)-(S)-1-(5-carbamoyl-2-fluorophenyl)-3-hydroxy-2-oxopyrrolidine-3-carboxamide] |
